Laboratory results: patent US9694027B2, “Pyrazole derivative and use thereof for medical purposes” (KISSEI PHARMACEUTICAL CO. LTD., priority 2012, dated 2017)

Key:
[1] = tested on: healthy adult males; assay: Multiple-dose study in healthy adult males (Example 4); type: in vivo, human; details: for Daily frequency of bowel movement after the administration, Mean: once daily Days 1 and 13, 3 times daily Days 3 to 12, daily mean during fifteen days, 8 subjects, Placebo 1.0; for Number of subject with gastrointestinal disorders: Abdominal pain / Number of subject with gastrointestinal disorders: Diarrhea: of 8 subjects; for Number of subject with gastrointestinal disorders: Abdominal pain: Placebo 0; for Number of subject with gastrointestinal disorders: Diarrhea: Placebo 3
Description: Compound 2 at a dose of 2, 5, 10 or 20 mg (free drug equivalent), a placebo, or miglitol at a dose of 50 mg was repetitively administered orally once daily just immediately before breakfast on administration Days 1 and 13, and 3 times daily just immediately before every meal on administration Days 3 to 12 to healthy adult males. For the administration of Compound 2, tablets containing 1, 5 or 10 mg in free drug equivalent were used. The test period was set between administration Day 1 and Day 15. Frequencies of bowel movements were checked during consultation by a doctor, and the adverse events (gastrointestinal disorders) were defined when an abnormal finding (diarrhea or loose stool) was seen based on the stool form and the finding. In this regard, the frequencies of bowel movements in Table 8 show the daily means during fifteen days (time/day).

[2] = tested on: healthy adult males; assay: Single-dose study in healthy adult males (Example 3); type: in vivo, human; details: for Number of subject with gastrointestinal disorders: Abdominal bloating / Number of subject with gastrointestinal disorders: Abdominal pain / Number of subject with gastrointestinal disorders: Diarrhea: of 6 subjects; for Frequency of bowel movement after the administration, Mean: 6 subjects, 48 hours, Placebo 1.7
Description: Compound 2 at a single dose of 2, 5, 10, 20, 40, 80 or 160 mg (free drug equivalent), or placebo was orally administered just immediately before breakfast to healthy adult males. For the administration of Compound 2, tablets containing 1, 5 or 10 mg in free drug equivalent were used. The test period was set between the administration and the discharge 48 hours after the administration. Frequencies of bowel movements were checked during consultation by a doctor, and the adverse events (gastrointestinal disorders) were defined when an abnormal finding (diarrhea or loose stool) was seen based on the stool form and the finding.

Cc1cc(OCCCNCC(C)(C)C(N)=O)ccc1Cc1c(O[C@@H]2O[C@H](CO)[C@@H](O)[C@H](O)[C@H]2O)n[nH]c1C(C)C.Cc1cc(OCCCNCC(C)(C)C(N)=O)ccc1Cc1c(O[C@@H]2O[C@H](CO)[C@@H](O)[C@H](O)[C@H]2O)n[nH]c1C(C)C.O=C(O)CCCCCCCCC(=O)O [Compound 2, bis[3-(3-{4-[3-(β-D-glucopyranosyloxy)-5-isopropyl-1H-pyrazol-4-ylmethyl]-3-methylphenoxy}propylamino)-2,2-dimethylpropionamide]monosebacate]
Daily frequency of bowel movement after the administration, Mean ([1]; 2 mg): 1.4 time/day | Daily frequency of bowel movement after the administration, Mean ([1]; 5 mg): 1.1 time/day | Daily frequency of bowel movement after the administration, Mean ([1]; 10 mg): 2.0 time/day | Daily frequency of bowel movement after the administration, Mean ([1]; 20 mg): 1.7 time/day | Number of subject with gastrointestinal disorders: Abdominal pain ([1]; multiple dose 2 mg): 0 | Number of subject with gastrointestinal disorders: Diarrhea ([1]; multiple dose 2 mg): 6 | Number of subject with gastrointestinal disorders: Abdominal pain ([1]; multiple dose 5 mg): 0 | Number of subject with gastrointestinal disorders: Diarrhea ([1]; multiple dose 5 mg): 5 | Number of subject with gastrointestinal disorders: Abdominal pain ([1]; multiple dose 10 mg): 0 | Number of subject with gastrointestinal disorders: Diarrhea ([1]; multiple dose 10 mg): 5 | Number of subject with gastrointestinal disorders: Abdominal pain ([1]; multiple dose 20 mg): 1 | Number of subject with gastrointestinal disorders: Diarrhea ([1]; multiple dose 20 mg): 6 | Stool form (Bristol Stool Form Scale) ([2]; 80 mg and 160 mg groups): type 6 or 7 for many subjects | Number of subject with gastrointestinal disorders: Abdominal bloating ([2]; single dose 2 mg): 0 | Number of subject with gastrointestinal disorders: Abdominal pain ([2]; single dose 2 mg): 0 | Number of subject with gastrointestinal disorders: Diarrhea ([2]; single dose 2 mg): 1 | Number of subject with gastrointestinal disorders: Abdominal bloating ([2]; single dose 5 mg): 0 | Number of subject with gastrointestinal disorders: Abdominal pain ([2]; single dose 5 mg): 0 | Number of subject with gastrointestinal disorders: Diarrhea ([2]; single dose 5 mg): 0 | Number of subject with gastrointestinal disorders: Abdominal bloating ([2]; single dose 10 mg): 0 | Number of subject with gastrointestinal disorders: Abdominal pain ([2]; single dose 10 mg): 0 | Number of subject with gastrointestinal disorders: Diarrhea ([2]; single dose 10 mg): 2 | Number of subject with gastrointestinal disorders: Abdominal bloating ([2]; single dose 20 mg): 0 | Number of subject with gastrointestinal disorders: Abdominal pain ([2]; single dose 20 mg): 0 | Number of subject with gastrointestinal disorders: Diarrhea ([2]; single dose 20 mg): 2 | Number of subject with gastrointestinal disorders: Abdominal bloating ([2]; single dose 40 mg): 0 | Number of subject with gastrointestinal disorders: Abdominal pain ([2]; single dose 40 mg): 0 | Number of subject with gastrointestinal disorders: Diarrhea ([2]; single dose 40 mg): 2 | Number of subject with gastrointestinal disorders: Abdominal bloating ([2]; single dose 80 mg): 2 | Number of subject with gastrointestinal disorders: Abdominal pain ([2]; single dose 80 mg): 4 | Number of subject with gastrointestinal disorders: Diarrhea ([2]; single dose 80 mg): 5 | Number of subject with gastrointestinal disorders: Abdominal bloating ([2]; single dose 160 mg): 3 | Number of subject with gastrointestinal disorders: Abdominal pain ([2]; single dose 160 mg): 3 | Number of subject with gastrointestinal disorders: Diarrhea ([2]; single dose 160 mg): 6 | Severity of gastrointestinal disorders (abdominal bloating, abdominal pain, diarrhea) ([2]; single dose 2-160 mg): mild in all the cases | Frequency of bowel movement after the administration, Mean ([2]; single oral dose 2 mg (free drug equivalent)): 1.7 time | Frequency of bowel movement after the administration, Mean ([2]; single oral dose 5 mg (free drug equivalent)): 1.0 time | Frequency of bowel movement after the administration, Mean ([2]; single oral dose 10 mg (free drug equivalent)): 2.2 time | Frequency of bowel movement after the administration, Mean ([2]; single oral dose 20 mg (free drug equivalent)): 2.2 time | Frequency of bowel movement after the administration, Mean ([2]; single oral dose 40 mg (free drug equivalent)): 1.8 time | Frequency of bowel movement after the administration, Mean ([2]; single oral dose 80 mg (free drug equivalent)): 4.8 time | Frequency of bowel movement after the administration, Mean ([2]; single oral dose 160 mg (free drug equivalent)): 5.2 time
